Experiments:
Assay type in all cases: in vivo
[1] = tested on: barnyardgrass (Echinochloa crus-galli); assay: Test B flooded paddy test barnyardgrass; conditions: Table B, Flood
Outline: (§1)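 Visual injury relative to controls was scored after 13 to 15 d in the greenhouse. Treatment was by adding compound straight to flood water 3 cm deep, maintained for the whole test, on plants at the 2-leaf stage.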

[2] = tested on: wheat (Triticum aestivum); assay: Test A postemergence wheat; conditions: 0 to 100 scale, 0 is no effect, 100 is complete control
Outline: (§2)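 Injury was scored by eye on a 0 to 100 scale after about 10 days in the greenhouse, with 100 meaning complete control. Preemergence treatment was a directed spray onto soil over seeds; postemergence treatment went onto one- to two-leaf plants 2–10 cm tall.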

[3] = tested on: ryegrass, Italian (Italian ryegrass, Lolium multiflorum); assay: Test A postemergence ryegrass, Italian; conditions: 0 to 100 scale, 0 is no effect, 100 is complete control
Outline: as §2

[4] = tested on: rice (Oryza sativa); assay: Test B flooded paddy test rice; conditions: Table B, Flood
Outline: as §1

[5] = tested on: barnyardgrass (Echinochloa crus-galli); assay: Test A postemergence barnyardgrass; conditions: 0 to 100 scale, 0 is no effect, 100 is complete control
Outline: as §2

[6] = tested on: kochia (Kochia scoparia); assay: Test A preemergence kochia; conditions: 0 to 100 scale, 0 no effect, 100 complete control
Outline: as §2

[7] = tested on: sedge, umbrella (small-flower umbrella sedge, Cyperus difformis); assay: Test B flooded paddy test sedge, umbrella; conditions: Table B, Flood
Outline: as §1

[8] = tested on: ryegrass, Italian (Italian ryegrass, Lolium multiflorum); assay: Test A preemergence ryegrass, Italian; conditions: 0 to 100 scale, 0 no effect, 100 complete control
Outline: as §2

[9] = tested on: galium (catchweed bedstraw, Galium aparine); assay: Test A postemergence galium; conditions: 0 to 100 scale, 0 is no effect, 100 is complete control
Outline: as §2

[10] = tested on: ducksalad (Heteranthera limosa); assay: Test B flooded paddy test ducksalad; conditions: Table B, Flood
Outline: as §1

[11] = tested on: pigweed (Amaranthus retroflexus); assay: Test A preemergence pigweed; conditions: 0 to 100 scale, 0 no effect, 100 complete control
Outline: as §2

[12] = tested on: foxtail, giant (giant foxtail, Setaria faberii); assay: Test A postemergence foxtail, giant; conditions: 0 to 100 scale, 0 is no effect, 100 is complete control
Outline: as §2

[13] = tested on: blackgrass (Alopecurus myosuroides); assay: Test A postemergence blackgrass; conditions: 0 to 100 scale, 0 is no effect, 100 is complete control
Outline: as §2

[14] = tested on: barnyardgrass (Echinochloa crus-galli); assay: Test A preemergence barnyardgrass; conditions: 0 to 100 scale
Outline: as §2

[15] = tested on: foxtail, giant (giant foxtail, Setaria faberii); assay: Test A preemergence foxtail, giant; conditions: 0 to 100 scale, 0 no effect, 100 complete control
Outline: as §2

[16] = tested on: corn (Zea mays); assay: Test A postemergence corn; conditions: 0 to 100 scale, 0 is no effect, 100 is complete control
Outline: as §2

[17] = tested on: kochia (Kochia scoparia); assay: Test A postemergence kochia; conditions: 0 to 100 scale, 0 is no effect, 100 is complete control
Outline: as §2

[18] = tested on: pigweed (Amaranthus retroflexus); assay: Test A postemergence pigweed; conditions: 0 to 100 scale, 0 is no effect, 100 is complete control
Outline: as §2

[19] = tested on: ragweed (common ragweed, Ambrosia elatior); assay: Test A postemergence ragweed; conditions: 0 to 100 scale, 0 is no effect, 100 is complete control
Outline: as §2

[20] = tested on: ragweed (common ragweed, Ambrosia elatior); assay: Test A preemergence ragweed; conditions: 0 to 100 scale, 0 no effect, 100 complete control
Outline: as §2

## O=C1NCCC(c2cccc(C(F)(F)F)c2)C1C(=O)Nc1ccccc1Cl (racemic) [Compound 17]
[1]; 500 g ai/ha, scale 0 to 100
  Plant response rating: 35
[2]; 125 g ai/ha
  Plant response rating, Wheat: 20
[2]; 500 g ai/ha
  Plant response rating, Wheat: 20
[3]; 125 g ai/ha
  Plant response rating, Ryegrass, Italian: 0
[3]; 500 g ai/ha
  Plant response rating, Ryegrass, Italian: 20
[4]; 500 g ai/ha, scale 0 to 100
  Plant response rating: 0
[5]; 125 g ai/ha
  Plant response rating, Barnyardgrass: 80
[5]; 500 g ai/ha
  Plant response rating, Barnyardgrass: 80
[6]; 125 g ai/ha
  Kochia plant response rating: 30
[6]; 500 g ai/ha
  Kochia plant response rating: 30
[7]; 500 g ai/ha, scale 0 to 100
  Plant response rating: 0
[8]; 125 g ai/ha
  Ryegrass, Italian plant response rating: 20
[8]; 500 g ai/ha
  Ryegrass, Italian plant response rating: 40
[9]; 125 g ai/ha
  Plant response rating, Galium: 20
[9]; 500 g ai/ha
  Plant response rating, Galium: 20
[10]; 500 g ai/ha, scale 0 to 100
  Plant response rating: 40
[11]; 125 g ai/ha
  Pigweed plant response rating: 0
[11]; 500 g ai/ha
  Pigweed plant response rating: 0
[12]; 125 g ai/ha
  Plant response rating, Foxtail, Giant: 80
[12]; 500 g ai/ha
  Plant response rating, Foxtail, Giant: 80
[13]; 125 g ai/ha
  Plant response rating, Blackgrass: 30
[13]; 500 g ai/ha
  Plant response rating, Blackgrass: 30
[14]; 125 g ai/ha, 0 no effect, 100 complete control
  Barnyardgrass plant response rating: 50
[14]; 500 g ai/ha, 0 no effect, 100 complete control
  Barnyardgrass plant response rating: 80
[15]; 125 g ai/ha
  Foxtail, Giant plant response rating: 80
[15]; 500 g ai/ha
  Foxtail, Giant plant response rating: 90
[16]; 125 g ai/ha
  Plant response rating, Corn: 0
[16]; 500 g ai/ha
  Plant response rating, Corn: 0
[17]; 125 g ai/ha
  Plant response rating, Kochia: 0
[17]; 500 g ai/ha
  Plant response rating, Kochia: 20
[18]; 125 g ai/ha
  Plant response rating, Pigweed: 0
[18]; 500 g ai/ha
  Plant response rating, Pigweed: 0
[19]; 125 g ai/ha
  Plant response rating, Ragweed: 0
[19]; 500 g ai/ha
  Plant response rating, Ragweed: 0
[20]; 125 g ai/ha
  Ragweed plant response rating: 0
[20]; 500 g ai/ha
  Ragweed plant response rating: 0

## O=C1NCCC(c2ccc(C(F)(F)F)cc2)C1C(=O)Nc1ccccc1Cl (stereo not shown) [Compound 13, N-(2-chlorophenyl)-2-oxo-4-[4-(trifluoromethyl)phenyl]-3-piperidinecarboxamide]
[1]; Echinochloa crus-galli, 250 g ai/ha, scale 0 to 100, read-out: Plant response rating
  pest or weed control at 250 g/ha: 0%
[1]; Echinochloa crus-galli, 1000 g ai/ha, scale 0 to 100, read-out: Plant response rating
  pest or weed control at 1000 g/ha: 40%
[2]; Triticum aestivum, post-emergence, 240 h, 125 g ai/ha, read-out: Plant response rating, Wheat
  plant injury at 125 g/ha: 0%
[2]; Triticum aestivum, post-emergence, 240 h, 500 g ai/ha, read-out: Plant response rating, Wheat
  plant injury at 500 g/ha: 0%
[3]; Lolium multiflorum, post-emergence, 240 h, 125 g ai/ha, read-out: Plant response rating, Ryegrass, Italian
  pest or weed control at 125 g/ha: 0%
[3]; Lolium multiflorum, post-emergence, 240 h, 500 g ai/ha, read-out: Plant response rating, Ryegrass, Italian
  pest or weed control at 500 g/ha: 0%
[4]; Oryza sativa, 250 g ai/ha, scale 0 to 100, read-out: Plant response rating
  plant injury at 250 g/ha: 0%
[4]; Oryza sativa, 1000 g ai/ha, scale 0 to 100, read-out: Plant response rating
  plant injury at 1000 g/ha: 0%
[5]; Echinochloa crus-galli, post-emergence, 240 h, 125 g ai/ha, read-out: Plant response rating, Barnyardgrass
  pest or weed control at 125 g/ha: 30%
[5]; Echinochloa crus-galli, post-emergence, 240 h, 500 g ai/ha, read-out: Plant response rating, Barnyardgrass
  pest or weed control at 500 g/ha: 90%
[6]; Bassia scoparia, pre-emergence, 240 h, 125 g ai/ha, read-out: Kochia plant response rating
  pest or weed control at 125 g/ha: 0%
[6]; Bassia scoparia, pre-emergence, 240 h, 500 g ai/ha, read-out: Kochia plant response rating
  pest or weed control at 500 g/ha: 40%
[7]; Cyperus difformis, 250 g ai/ha, scale 0 to 100, read-out: Plant response rating
  pest or weed control at 250 g/ha: 0%
[7]; Cyperus difformis, 1000 g ai/ha, scale 0 to 100, read-out: Plant response rating
  pest or weed control at 1000 g/ha: 0%
[8]; Lolium multiflorum, pre-emergence, 240 h, 125 g ai/ha, read-out: Ryegrass, Italian plant response rating
  pest or weed control at 125 g/ha: 0%
[8]; Lolium multiflorum, pre-emergence, 240 h, 500 g ai/ha, read-out: Ryegrass, Italian plant response rating
  pest or weed control at 500 g/ha: 0%
[9]; Galium, post-emergence, 240 h, 125 g ai/ha, read-out: Plant response rating, Galium
  pest or weed control at 125 g/ha: 0%
[9]; Galium, post-emergence, 240 h, 500 g ai/ha, read-out: Plant response rating, Galium
  pest or weed control at 500 g/ha: 0%
[10]; Heteranthera limosa, 250 g ai/ha, scale 0 to 100, read-out: Plant response rating
  pest or weed control at 250 g/ha: 70%
[10]; Heteranthera limosa, 1000 g ai/ha, scale 0 to 100, read-out: Plant response rating
  pest or weed control at 1000 g/ha: 100%
[11]; Amaranthus retroflexus, pre-emergence, 240 h, 125 g ai/ha, read-out: Pigweed plant response rating
  pest or weed control at 125 g/ha: 0%
[11]; Amaranthus retroflexus, pre-emergence, 240 h, 500 g ai/ha, read-out: Pigweed plant response rating
  pest or weed control at 500 g/ha: 0%
[12]; Setaria faberi, post-emergence, 240 h, 125 g ai/ha, read-out: Plant response rating, Foxtail, Giant
  pest or weed control at 125 g/ha: 30%
[12]; Setaria faberi, post-emergence, 240 h, 500 g ai/ha, read-out: Plant response rating, Foxtail, Giant
  pest or weed control at 500 g/ha: 90%
[13]; Alopecurus myosuroides, post-emergence, 240 h, 125 g ai/ha, read-out: Plant response rating, Blackgrass
  pest or weed control at 125 g/ha: 0%
[13]; Alopecurus myosuroides, post-emergence, 240 h, 500 g ai/ha, read-out: Plant response rating, Blackgrass
  pest or weed control at 500 g/ha: 0%
[14]; 500 g ai/ha, 0 is no effect, 100 is complete control
  Plant response rating, Barnyardgrass: 70
[14]; Echinochloa crus-galli, pre-emergence, 240 h, 125 g ai/ha, 0 no effect, 100 complete control, read-out: Barnyardgrass plant response rating
  pest or weed control at 125 g/ha: 40%
[15]; Setaria faberi, pre-emergence, 240 h, 125 g ai/ha, read-out: Foxtail, Giant plant response rating
  pest or weed control at 125 g/ha: 70%
[15]; Setaria faberi, pre-emergence, 240 h, 500 g ai/ha, read-out: Foxtail, Giant plant response rating
  pest or weed control at 500 g/ha: 90%
[16]; Zea mays, post-emergence, 240 h, 125 g ai/ha
  Corn plant response rating (crop injury, 0 = no effect, 100 = complete kill) at 125 g/ha: 0%
[16]; Zea mays, post-emergence, 240 h, 500 g ai/ha
  Corn plant response rating (crop injury, 0 = no effect, 100 = complete kill) at 500 g/ha: 0%
[17]; Bassia scoparia, post-emergence, 240 h, 125 g ai/ha, read-out: Plant response rating, Kochia
  pest or weed control at 125 g/ha: 0%
[17]; Bassia scoparia, post-emergence, 240 h, 500 g ai/ha, read-out: Plant response rating, Kochia
  pest or weed control at 500 g/ha: 0%
[18]; Amaranthus retroflexus, post-emergence, 240 h, 125 g ai/ha, read-out: Plant response rating, Pigweed
  pest or weed control at 125 g/ha: 0%
[18]; Amaranthus retroflexus, post-emergence, 240 h, 500 g ai/ha, read-out: Plant response rating, Pigweed
  pest or weed control at 500 g/ha: 0%
[19]; Ambrosia artemisiifolia, post-emergence, 240 h, 125 g ai/ha, read-out: Plant response rating, Ragweed
  pest or weed control at 125 g/ha: 0%
[19]; Ambrosia artemisiifolia, post-emergence, 240 h, 500 g ai/ha, read-out: Plant response rating, Ragweed
  pest or weed control at 500 g/ha: 0%
[20]; Ambrosia artemisiifolia, pre-emergence, 240 h, 125 g ai/ha, read-out: Ragweed plant response rating
  pest or weed control at 125 g/ha: 0%
[20]; Ambrosia artemisiifolia, pre-emergence, 240 h, 500 g ai/ha, read-out: Ragweed plant response rating
  pest or weed control at 500 g/ha: 0%

Reference: patent publication US9944602B2, “Piperidinone herbicides” (E. I. DU PONT DE NEMOURS AND COMPANY, priority 2014, dated 2018)
